{"source": "patent US8889712B2", "about": "“IAP antagonists” (Bristol-Myers Squibb Company, priority 2012, dated 2014)", "key": {"XIAP BIR3": {"biological_target": "T1, XIAP BIR3 (Homo sapiens, UniProt P98170)", "T1 construct": "His-BIR3 (241-356, XIAP)", "T1 sequence (P98170 241-356)": "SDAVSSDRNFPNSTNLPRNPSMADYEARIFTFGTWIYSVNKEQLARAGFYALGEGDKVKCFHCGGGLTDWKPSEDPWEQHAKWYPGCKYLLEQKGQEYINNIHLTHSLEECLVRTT", "assay": "XIAP-BIR3/SMAC Homogeneous Time Resolved Fluorescence (HTRF) Assay", "format": "binding", "method_in_brief": "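Competition HTRF between XIAP-BIR3 and SMAC; reaction 60 min at room temperature, then anti-6×His-terbium Fab detection for a further 30 min.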"}, "XIAP BIR2-3": {"biological_target": "T2, XIAP BIR2-3 (Homo sapiens, UniProt P98170, C202A/C213G)", "T2 construct": "His-BIR2-3 (125-356, C202A/C213G, XIAP)", "T2 sequence (P98170 125-356 C202A/C213G)": "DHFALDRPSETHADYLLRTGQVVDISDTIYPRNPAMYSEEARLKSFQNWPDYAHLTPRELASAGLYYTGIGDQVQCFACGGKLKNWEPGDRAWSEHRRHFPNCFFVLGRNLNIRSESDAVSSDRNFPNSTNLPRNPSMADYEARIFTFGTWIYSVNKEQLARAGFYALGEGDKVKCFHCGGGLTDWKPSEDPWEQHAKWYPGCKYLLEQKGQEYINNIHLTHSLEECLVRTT", "assay": "XIAP-BIR2-3 dimeric SMAC Peptide Homogeneous Time Resolved Fluorescence (HTRF) Assay", "format": "binding", "experimental": "B. […] Assays were performed in black, flat-bottom, 384-well plates. […] Compounds were dissolved at 3 mM in dimethylsulfoxide (DMSO) and evaluated at eleven serially diluted concentrations. IC50 and Ki values were derived by non-linear regression analysis."}, "[1]": {"conditions": "1 nM N-His-BIR3 (241-356, XIAP), 5 nM fluorescein labeled SMAC peptide, HTRF signal, read-out: XIAP BIR3 IC50"}, "[2]": {"conditions": "0.5 nM N-His-BIR2-3 (125-356, C202A/C213G, XIAP), 20 nM fluorescein labeled dimeric SMAC peptide, HTRF signal, read-out: XIAP BIR2-3 IC50"}}, "note": "pIC50: −log10 of the molar value. Where two headings read alike, the source gives them in different places.", "data": [{"smiles": "CN[C@@H](C)C(=O)N[C@H](C(=O)N1Cc2cc([C@H]3C[C@@H](C(=O)N[C@@H]4CCCc5ccccc54)N(C(=O)[C@@H](NC(=O)[C@H](C)NC)C(C)(C)C)C3)ccc2C[C@H]1C(=O)N[C@H](CO)Cc1ccccc1)C(C)(C)C", "note": "[Example 34, (S)-2-((S)-3,3-Dimethyl-2-((S)-2-(methylamino)propanamido)butanoyl)-7-((3R,5S)-1-((S)-3,3-dimethyl-2-((S)-2-(methylamino)propanamido)butanoyl)-5-(((R)-1,2,3,4-tetrahydronaphthalen-1-yl)carbamoyl)pyrrolidin-3-yl)-N-((S)-1-hydroxy-3-phenylpropan-2-yl)-1,2,3,4-tetrahydroisoquinoline-3-carboxamide]", "values": [{"measurement": "pIC50", "setting": "XIAP BIR3; [1]", "result": 8.32}, {"measurement": "pIC50", "setting": "XIAP BIR2-3; [2]", "result": 8.15}]}, {"smiles": "CN[C@@H](C)C(=O)N[C@H](C(=O)N1Cc2ccc(C(=O)N[C@H]3C[C@@H](C(=O)N[C@@H]4CCCc5ccccc54)N(C(=O)[C@@H](NC(=O)[C@H](C)NC)C(C)(C)C)C3)cc2C[C@@H]1C(=O)N[C@@H]1CCCc2ccccc21)C(C)(C)C", "note": "[Example 26, (R)-2-((S)-3,3-Dimethyl-2-((S)-2-(methylamino)propanamido)butanoyl)-N6-((3S,5S)-1-((S)-3,3-dimethyl-2-((S)-2-(methylamino)propanamido)butanoyl)-5-(((R)-1,2,3,4-tetrahydronaphthalen-1-yl)carbamoyl)pyrrolidin-3-yl)-N^3—((R)-1,2,3,4-tetrahydronaphthalen-1-yl)-1,2,3,4-tetrahydroisoquinoline-3,6-dicarboxamide]", "values": [{"measurement": "pIC50", "setting": "XIAP BIR3; [1]", "result": 7.96}, {"measurement": "pIC50", "setting": "XIAP BIR2-3; [2]", "result": 6.71}]}, {"smiles": "CN[C@@H](C)C(=O)N[C@H](C(=O)N1C[C@@H](c2ccc3c(c2)CN(C(=O)[C@@H](NC(=O)[C@H](C)NC)C(C)(C)C)[C@H](C(=O)N[C@@H]2CCCc4ccccc42)C3)C[C@H]1C(=O)N[C@@H](Cc1ccccc1)C(=O)NCCC(C)C)C(C)(C)C", "note": "[Example 69, (S)-2-((S)-3,3-Dimethyl-2-((S)-2-(methylamino)propanamido)butanoyl)-7-((3R,5S)-1-((S)-3,3-dimethyl-2-((S)-2-(methylamino)propanamido)butanoyl)-5-(((S)-1-(isopentylamino)-1-oxo-3-phenylpropan-2-yl)carbamoyl)pyrrolidin-3-yl)-N-((R)-1,2,3,4-tetrahydronaphthalen-1-yl)-1,2,3,4-tetrahydroisoquinoline-3-carboxamide]", "values": [{"measurement": "pIC50", "setting": "XIAP BIR3; [1]", "result": 8.07}, {"measurement": "pIC50", "setting": "XIAP BIR2-3; [2]", "result": 8.82}]}, {"smiles": "CN[C@@H](C)C(=O)N[C@H](C(=O)N1Cc2cc(O[C@H]3C[C@@H](C(=O)N[C@@H]4CCCc5ccccc54)N(C(=O)[C@@H](NC(=O)[C@H](C)NC)C(C)(C)C)C3)ccc2C[C@H]1C(=O)N[C@@H]1CCCc2ccccc21)C(C)(C)C", "note": "[Example 21, (S)-2-((S)-3,3-Dimethyl-2-((S)-2-(methylamino)propanamido)butanoyl)-7-(((3S,5S)-1-((S)-3,3-dimethyl-2-((S)-2-(methylamino)propanamido)butanoyl)-5-(((R)-1,2,3,4-tetrahydronaphthalen-1-yl)carbamoyl)pyrrolidin-3-yl)oxy)-N—((R)-1,2,3,4-tetrahydronaphthalen-1-yl)-1,2,3,4-tetrahydroisoquinoline-3-carboxamide]", "values": [{"measurement": "pIC50", "setting": "XIAP BIR3", "result": 7.52}, {"measurement": "pIC50", "setting": "XIAP BIR2-3", "result": 8.52}]}, {"smiles": "CCN[C@@H](C)C(=O)N[C@H](C(=O)N1C[C@@H](NC(=O)c2ccc3c(c2)CN(C(=O)[C@@H](NC(=O)[C@H](C)NC)C(C)(C)C)[C@H](C(=O)N[C@@H]2CCCc4ccccc42)C3)C[C@H]1C(=O)N[C@@H]1CCCc2ccccc21)C(C)(C)C", "note": "[Example 14, (S)-2-((S)-3,3-Dimethyl-2-((S)-2-(methylamino)propanamido)butanoyl)-N^7-((3S,5S)-1-((S)-2-((S)-2-(ethylamino)propanamido)-3,3-dimethylbutanoyl)-5-(((R)-1,2,3,4-tetrahydronaphthalen-1-yl)carbamoyl)pyrrolidin-3-yl)-N^3-((R)-1,2,3,4-tetrahydronaphthalen-1-yl)-1,2,3,4-tetrahydroisoquinoline-3,7-dicarboxamide]", "values": [{"measurement": "pIC50", "setting": "XIAP BIR3; [1]", "result": 7.54}, {"measurement": "pIC50", "setting": "XIAP BIR2-3; [2]", "result": 7.82}]}, {"smiles": "CN[C@@H](C)C(=O)N[C@H](C(=O)N1C[C@@H](c2ccc3c(c2)CN(C(=O)[C@@H](NC(=O)[C@H](C)NC)C(C)(C)C)[C@H](C(=O)N[C@@H]2CCCc4ccccc42)C3)C[C@H]1C(=O)N[C@@H](Cc1ccccc1)C(=O)N1CCOCC1)C(C)(C)C", "note": "[Example 47, (S)-2-((S)-3,3-Dimethyl-2-((S)-2-(methylamino)propanamido)butanoyl)-7-((3R,5S)-1-((S)-3,3-dimethyl-2-((S)-2-(methylamino)propanamido)butanoyl)-5-(((S)-1-morpholino-1-oxo-3-phenylpropan-2-yl)carbamoyl)pyrrolidin-3-yl)-N-((R)-1,2,3,4-tetrahydronaphthalen-1-yl)-1,2,3,4-tetrahydroisoquinoline-3-carboxamide]", "values": [{"measurement": "pIC50", "setting": "XIAP BIR3; [1]", "result": 7.76}, {"measurement": "pIC50", "setting": "XIAP BIR2-3; [2]", "result": 8.62}]}, {"smiles": "CN[C@@H](C)C(=O)N[C@H](C(=O)N1Cc2cc([C@H]3C[C@@H](C(=O)N[C@@H]4CCCc5ccccc54)N(C(=O)[C@@H](NC(=O)[C@H](C)NC)C(C)(C)C)C3)ccc2C[C@H]1C(=O)N[C@@H]1CCCc2ccccc21)C(C)(C)C", "note": "[Example 22, (S)-2-((S)-3,3-Dimethyl-2-((S)-2-(methylamino)propanamido)butanoyl)-7-((3R,5S)-1-((S)-3,3-dimethyl-2-((S)-2-(methylamino)propanamido)butanoyl)-5-(((R)-1,2,3,4-tetrahydronaphthalen-1-yl)carbamoyl)pyrrolidin-3-yl)-N—((R)-1,2,3,4-tetrahydronaphthalen-1-yl)-1,2,3,4-tetrahydroisoquinoline-3-carboxamide]", "values": [{"measurement": "pIC50", "setting": "XIAP BIR3", "result": 8.70}, {"measurement": "pIC50", "setting": "XIAP BIR2-3", "result": 9.00}]}, {"smiles": "CN[C@@H](C)C(=O)N[C@H](C(=O)N1Cc2cc([C@H]3C[C@@H](C(=O)N[C@@H]4CCCc5ccccc54)N(C(=O)[C@@H](NC(=O)[C@H](C)NC)C(C)(C)C)C3)ccc2C[C@H]1C(=O)N[C@H](COCCO)Cc1ccccc1)C(C)(C)C", "note": "[Example 44, (S)-2-((S)-3,3-Dimethyl-2-((S)-2-(methylamino)propanamido)butanoyl)-7-((3R,5S)-1-((S)-3,3-dimethyl-2-((S)-2-(methylamino)propanamido)butanoyl)-5-(((R)-1,2,3,4-tetrahydronaphthalen-1-yl)carbamoyl)pyrrolidin-3-yl)-N—((S)-1-(2-hydroxyethoxy)-3-phenylpropan-2-yl)-1,2,3,4-tetrahydroisoquinoline-3-carboxamide]", "values": [{"measurement": "pIC50", "setting": "XIAP BIR3; [1]", "result": 7.99}, {"measurement": "pIC50", "setting": "XIAP BIR2-3; [2]", "result": 7.76}]}, {"smiles": "CN[C@@H](C)C(=O)N[C@H](C(=O)N1C[C@@H](c2ccc3c(c2)CN(C(=O)[C@@H](NC(=O)[C@H](C)NC)C(C)(C)C)[C@H](C(=O)N[C@@H]2CCCc4ccccc42)C3)C[C@H]1C(=O)N[C@@H](Cc1ccccc1)C(=O)N(C)CCOC)C(C)(C)C", "note": "[Example 55, (S)-2-((S)-3,3-Dimethyl-2-((S)-2-(methylamino)propanamido)butanoyl)-7-((3R,5S)-1-((S)-3,3-dimethyl-2-((S)-2-(methylamino)propanamido)butanoyl)-5-(((S)-1-((2-methoxyethyl)(methyl)amino)-1-oxo-3-phenylpropan-2-yl)carbamoyl)pyrrolidin-3-yl)-N-((R)-1,2,3,4-tetrahydronaphthalen-1-yl)-1,2,3,4-tetrahydroisoquinoline-3-carboxamide]", "values": [{"measurement": "pIC50", "setting": "XIAP BIR3; [1]", "result": 7.42}, {"measurement": "pIC50", "setting": "XIAP BIR2-3; [2]", "result": 8.07}]}]}
